The source of these data is paper PMC3003262 (Drug development research, 2010).

The target in test [1] is T1, human CB1 F268W mutant receptor (Homo sapiens, UniProt P21554, F268W). In words: biochemical. The test is classed as binding. The settings on record: for loss in affinity relative to wild-type receptor: F268W receptor vs WT.
In test [2] the target is T2, human CB1 P269A mutant receptor (Homo sapiens, UniProt P21554, P269A). The test can be described thus: biochemical. The test is classed as binding.
T2 sequence (P21554 whole entry P269A): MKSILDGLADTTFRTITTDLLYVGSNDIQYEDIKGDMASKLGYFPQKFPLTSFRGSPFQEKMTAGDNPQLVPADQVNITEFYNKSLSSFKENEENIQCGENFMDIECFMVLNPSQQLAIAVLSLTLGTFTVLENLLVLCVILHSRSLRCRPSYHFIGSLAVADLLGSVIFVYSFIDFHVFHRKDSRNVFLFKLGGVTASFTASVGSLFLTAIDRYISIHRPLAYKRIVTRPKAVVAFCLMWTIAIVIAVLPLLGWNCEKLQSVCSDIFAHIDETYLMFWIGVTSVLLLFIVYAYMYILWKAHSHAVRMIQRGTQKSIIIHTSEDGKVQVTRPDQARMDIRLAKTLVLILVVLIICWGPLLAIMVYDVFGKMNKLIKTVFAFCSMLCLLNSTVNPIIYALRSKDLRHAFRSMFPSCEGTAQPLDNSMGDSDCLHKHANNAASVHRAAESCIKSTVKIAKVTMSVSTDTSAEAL
For test [3], the target named is human CB1 H270A mutant receptor (Homo sapiens, UniProt P21554, H270A). In words: biochemical. Format: binding.
Chain of human CB1 H270A mutant receptor (P21554 whole entry H270A): as the sequence (P21554 whole entry P269A) above, with A269P, H270A counted along it
Test [4] addresses T3, human CB1 I271A mutant receptor (Homo sapiens, UniProt P21554, I271A). The test can be described thus: biochemical. The test is classed as binding. The settings on record: for loss in affinity relative to wild-type receptor: I271A receptor vs WT.
Test [5] deals with T4, human CB1 wild-type (WT) receptor (Homo sapiens, UniProt P21554). In words: Competition binding with [3H]SR141716A, wild-type CB1 membranes.
T4 sequence (P21554 whole entry): as the sequence (P21554 whole entry P269A) above, with A269P counted along it
In test [6] the target is T4, human CB1 wild-type (WT) receptor. The settings on record: cited from earlier work.
The target of test [7] is T1, human CB1 F268W mutant receptor. The settings on record: cited from earlier work.
For test [8], the target named is T2, human CB1 P269A mutant receptor. The settings on record: cited from earlier work.
In test [9] the target is T3, human CB1 I271A mutant receptor. The settings on record: cited from earlier work.

Where two headings read alike, the source gives them in different places.

T3 sequence (P21554 whole entry I271A): as the sequence (P21554 whole entry P269A) above, with A269P, I271A counted along it
T1 sequence (P21554 whole entry F268W): as the sequence (P21554 whole entry P269A) above, with F268W, A269P counted along it

For orientation: Ki means the dissociation constant of the complex between target and ligand, obtained from inhibition or displacement. Regarding `O=C(NN1CCCCC1)c1nn(-c2ccc(Cl)cc2Cl)c2c1CCCc1cc(Cl)ccc1-2` [NESS0327], the inhibition constant (Ki) in test [1] turned out to be 0.021 µM; in [2], 0.003 µM; in [3] it was 0.0061 µM; in [4], 0.0112 µM. Moreover, in test [1], the “loss in affinity relative to wild-type receptor” value is 5 fold.

With `CCCCC(C)(C)c1cc(O)c2c(c1)OC(C)(C)C1CC=C(C)CC21` (stereo not drawn) [JWH061, 3-(1′,1′-dimethylpentyl)-Δ;8-tetrahydrocannabinol], the Ki in test [1] is 3.46 µM; in test [2], 1.73 µM; in test [3], 0.373 µM; in test [4] it was 0.773 µM.

`CCCCC(C)c1ccc(-c2c(-c3ccc(Cl)cc3Cl)nn(N3CCCCC3)c2C)cc1` (stereo not drawn) [O-1690, N-(N-piperdyl)-3-(2,4-dichlrophenyl)-4-(4′-(1′-methylpentyl)phenyl)-5-methylpyrazole]: the Ki in test [1] amounted to 0.0233 µM; in test [2] it was 0.00096 µM; in test [3] it was 0.002 µM; in test [4], 0.0773 µM.

As to `CC1=CC[C@@H]2[C@@H](C1)c1ccc(CC#CCCCNS(C)(=O)=O)cc1OC2(C)C` [O-2050, (6aR,10aR)-3-(1-methanesulfonylamino-4-hexyn-6-yl)-6a,7, 10,10a-tetrahydro-6,6,9-trimethyl-6H-dibenzo[b,d]pyran], the Ki in [5] was found to be 0.0034 µM; in test [1], 0.148 µM; in test [2], 0.0686 µM; in test [3], 0.0402 µM; in [4] it was 0.166 µM. The “loss in affinity relative to wild-type receptor” value stood at 44 fold in test [1] and 49 fold in [4]. For the same molecule, the results for the “reduced affinity relative to wild-type receptor” value in test [2] (P269A receptor vs WT) and in [3] (H270A receptor vs WT) were 20 fold and 12 fold, respectively.

Regarding `CS(=O)(=O)N(c1cc(F)cc(F)c1)C1CN(C(c2ccc(Cl)cc2)c2ccc(Cl)cc2)C1` [AVE1625, N-{1-[bis(4-chloro-phenyl)-methyl]azetidin-3-yl}-N-(3,5-difluorophenyl)methanesulfonamide], the inhibition constant Ki is 0.00064 µM in test [5]; 0.0022 µM in test [1]; 0.00088 µM in test [2]; 0.0012 µM in [3]; 0.0018 µM in [4]. The “loss in affinity relative to wild-type receptor” value in test [1] and in test [4] was 3 fold in each case.

With `CC1=CCC2C(C1)c1c(O)cc(C(C)(C)C)cc1OC2(C)C` (stereo not drawn) [JWH179, 3-(1′,1′-dimethylethyl)-Δ8-tetrahydrocannabinol], the Ki in test [1] turned out to be 1.11 µM; in [2], 0.798 µM; in [3] it was 0.09 µM; in test [4], 0.194 µM.

In the case of `CCCCCc1ccc(-n2nc(C(=O)NN3CCCCC3)c(C)c2-c2ccc(Cl)cc2)cc1` [O-1255], the Ki in test [1] was determined as 0.31 µM; in [2], 0.0747 µM; in test [3], 0.113 µM; in test [4] it was 0.46 µM. Further, the “loss in affinity relative to wild-type receptor” value came out at 4 fold in [1] and 6 fold in test [4].

Consider `N#Cc1c(Oc2cccc(OS(=O)(=O)CCCC(F)(F)F)c2)cccc1C(F)(F)F` [BAY593074, 3-[2-cyano-3-(trifluoromethyl)phenoxy]phenyl-4,4,4-trifluoro-1-butanesulfonate], for which the Ki is 0.249 µM in [5]; 1.86 µM in test [1]; 0.341 µM in test [2]; 0.412 µM in test [3]; 2.87 µM in test [4]. Also, the “binding affinity diminished relative to wild-type receptor (up to)” value in [4] is listed as “up to 12 fold”.

With `CCCCCCC(C)(C)c1cc(O)c2c(c1)OC(C)(C)[C@@H]1CC=C(CO)C[C@@H]21` [HU-210, (−)-11-hydroxydimethylheptyl-Δ8-tetrahydrocannabinol], the inhibitory constant (Ki) is 0.0138 µM in [3]; 0.0037 µM in test [6]; 1.67 µM in test [7]; 0.0226 µM in test [8]; 0.31 µM in test [9].

Turning to `CCCCCc1ccc(-c2c(C)c(C(=O)NN3CCCCC3)nn2-c2ccc(Cl)cc2Cl)cc1` [O-1302, [I]N[/I]-(piperidin-1-yl)-1-(2,4-dichlorophenyl)-4-methyl-5-(4-pentylphenyl)-1H-pyrazole-3-carboxamide], the Ki in [1] turned out to be 0.0262 µM; in [2] it was 0.0011 µM; in test [3], 0.0026 µM; in test [4], 0.0384 µM.
